For orientation: IC50 means the concentration that inhibits the measured activity by half.

The target of this assay is T1, renin (Homo sapiens, UniProt P00797).
T1 sequence (P00797 67-406): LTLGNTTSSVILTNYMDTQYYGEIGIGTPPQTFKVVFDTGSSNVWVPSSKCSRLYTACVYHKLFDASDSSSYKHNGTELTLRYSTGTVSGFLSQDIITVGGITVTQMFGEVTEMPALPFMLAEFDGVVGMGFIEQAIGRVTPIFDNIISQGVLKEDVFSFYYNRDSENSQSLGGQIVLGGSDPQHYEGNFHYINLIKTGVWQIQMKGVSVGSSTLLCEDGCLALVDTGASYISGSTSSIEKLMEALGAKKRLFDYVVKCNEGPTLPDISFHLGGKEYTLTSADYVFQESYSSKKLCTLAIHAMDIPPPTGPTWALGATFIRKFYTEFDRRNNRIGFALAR
The assay can be described thus: in vitro renin inhibitory activity, radioimmunoassay for angiotensin I. The class given is biochemical. Particulars: renin incubated two hours at 37° with substrate angiotensinogen; angiotensin I by radioimmunoassay; molar concentration causing 50% inhibition. How it is done: The effectiveness of the aforementioned compounds is determined by a test for in vitro renin inhibitory activity. This activity is determined by a standard radioimmunoassay for angiotensin I. In this assay the enzyme, renin, incubated for two hours at 37° in the presence of a substrate, angiotensinogen, generates the product, angiotensin I. Test compounds are added to the incubation mixture. Relative activity is reported as the IC50, which is the molar concentration of test compound causing a 50% inhibition of the renin activity.

For `CCC(C)CNC(=O)CC(O)C(CC(C)C)NC(=O)C(Cc1cnc[nH]1)NC(=O)C(Cc1ccc(OC)cc1)NS(=O)(=O)N(C)C` (stereo not drawn) [Me2 NSO2 TYR(OMe)HISSTANHCH2 CH(CH3)CH2 CH3], the IC50 is ~3000 nM. MeNSO2 PHEPGYCYSTANHCH2 CH(CH3)CH2 CH3 came in with an IC50 of 1.1 nM. This lies in the single-digit nanomolar range.

As for MeNSO2 PHEALGCYSTANHCH2 CH(CH3)CH2 CH3, half-maximal inhibition (IC50) required 1.5 nM. The same measure for “Me2 NSO2 --PHE--PGY--STA--NHCH2 CH(CH3)CH2 CH3 [Me2 NSO2 PHEPGYSTANHCH2 CH(CH3)CH2 CH3]”: 34 nM. The same measure for `C=CC[C@H](NC(=O)[C@H](Cc1ccccc1)NS(=O)(=O)N(C)C)C(=O)N[C@@H](CC(C)C)[C@@H](O)CC(=O)NCC(C)CC` (stereo partly drawn) [MeNSO2 PHEALGSTANHCH2 CH(CH3)CH2 CH3, Me2 NSO2 --PHE--ALG--STA--NHCH2 CH(CH3)CH2 CH3]: 7 nM; for `CCC(C)CNC(=O)CC(O)C(CC(C)C)NC(=O)C(Cc1cnc[nH]1)NC(=O)C(Cc1ccccc1)NS(=O)(=O)N(C)C` (stereo not drawn) [Me2 NSO2 PHEHISSTANHCH2 CH(CH3)CH2 CH3, Me2 NSO2 --PHE--HIS--STA--NHCH2 CH(CH3)CH2 CH3]: 41 nM.

For the origin of these results see patent US5288851A, “Renin inhibitors, processes for preparing them, methods for using them, and compositions containing them” (Warner-Lambert Company, priority 1992, dated 1994).
